Experimental data published in patent publication EP0173754A1, “7-THIAPROSTAGLANDIN E 1?'S AND PROCESS FOR THEIR PREPARATION” (TEIJIN LIMITED, priority 1984, dated 1985).
Values after ≈ are worked out from the molar mass of the structure shown.

Columns and labels:
[1] = tested on: blood platelet aggregation; test: In vitro blood platelet aggregation inhibition (ADP-induced, rabbit PRP); type: cell-based, rabbits; conditions: Oryctolagus cuniculus, 10 uM ADP (final), preincubated 37°C 2 minutes, read-out: Anti-platelet aggregation effect IC50
Excerpt: The in vitro blood platelet aggregation inhibition effect of the sample compounds to be tested was examined by using rabbits. That is, blood was collected from the ear vein of native Japanese white male domestic rabbits weighing 2.5 to 3.5 kg. The collected blood was 9 parts by volume per 1 part by volume of a 3.8% sodium citrate solution. The blood was centrifuged at 1000 r.p.m. for 10 mintues. The upper layer portion was separated as PRP (rich in platelet blood plasma). The lower layer portion was further centrifuged at 2800 r.p.m. for 10 mintues to divide it into two layers. The upper layer portion was separated as PPP (poor in platelet blood plasma). The number of the platelet was diluted with PPP to 6 to […]. […]
When the activity of the sample compounds was determined, the ethanol solution was diluted with a phosphoric acid buffer (PH 7.4). The ethanol solution diluted with the buffer was left to stand at a temperature of 0°C for 4 hours, after which the activity of the sample compounds was determined in the same manner.
The platelet aggregation inhibition was calculated by the following formula: [formula] • T : the transmittance of the system to which the phosphoric acid buffer is added • T: the transmittance of the system to which the sample compounds are added […]

[2] = tested on: ulcer formation induced by indomethacin; test: Antiulcerative effect: inhibition of indomethacin-induced ulcer formation in rats; type: in vivo; conditions: Rattus norvegicus, po; P.O; Wister male rats; indomethacin 20 mg/kg orally 30 minutes after sample; ulcer length 5 hours after indomethacin
Description: The inhibiting effect on ulcer formation induced by indomethacin was examined by using rats. Wister male rats (7 weeks old and body weight of 220 g) were abstained from food for 24 hours except giving water and then subjected to experiments.
The sample compounds to be tested were dissolved in a phosphoric acid buffer (pH 7.4) containing 0.9% NaCl and the solution was orally administered to the rats. 30 minutes after the administration, indomethacin was orally administered to the rats at a dose of 20 mg/kg. 5 hours after the administration of the indomethacin, the rats were kileld and the ulcer formation in the stomach was examined by determining the length of the ulcer formation portion under a stereomicroscope. From this measurement, the inhibition of ulcer formation by the sample compounds were calculated to determine the ED50 values.

Ethanol Ulcer = test: Effect against ethanol ulcer in rats; type: in vivo; conditions: Rattus norvegicus, po, 1 h; P.O; SD type male rats; 75% ethanol 1 ml/kg orally 30 minutes after sample; ulcer length one hour after ethanol; read-out: Antiulcerative effect ED50
Description: SD type male rats (7 weeks old and body weight of 220 g) were abstained from food for 24 hours except giving water and then subjected to experiments.
The sample compound to be tested was dissolved in a phosphoric acid buffer (pH 7.4) containing 0.9% NaCl and the solution was orally administered to the rats. 30 minutes after the administration, 75% ethanol was orally administered to the rats at a dose of 1 ml/kg. One hour after the administration of the ethanol, the rats were killed and the ulcer formation in the stomach was examined by determining the length of the ulcer formation portion under a stereomicroscope. From this measurement, the inhibition of ulcer formation by the sample compound was calculated to determine the ED50 value.

## CCCCC(O)C/C=C/[C@H]1[C@H](O)CC(=O)[C@@H]1SCCCCCC(=O)OC (stereo partly drawn) [Compound of this invention]
[1]
  IC50: 17 µg/mL (≈ 44 µM)
[2]
  ED50: 0.01 mg/kg
Ethanol Ulcer
  ED50: 0.018 mg/kg
